Assay results reported in patent US20250332183A1, “COMPOSITIONS AND METHODS FOR THE STIMULATION OF INTERMEDIATE MACROPHAGES AND TREATMENTS THEREWITH” (priority 2024, published 2025).

Experiments:
mice [1] = test: AVR-48 pretreatment of mice followed by LPS, immune cell profile; format: in vivo, mouse; conditions: mice pretreated with AVR-48, in the presence of LPS
Excerpt: AVR-48 stimulated innate and adaptive immune response via (FIG. 25E) TNF-α increase and (FIG. 25F) CD3+, (FIG. 25G) CD4+, and (FIG. 25H) CD8+ T-cells, a necessary step in adaptive response and immune resolution. *p<0.05, **p<0.01, ***p<0.001; N=4, One-way ANOVA was used for analysis.

[2] = test system: preterm lamb model of BPD; test: Survival and growth in mechanically ventilated preterm lamb BPD model; format: in vivo
Method: For dose-optimization, preterm (PT) lambs were delivered at ˜128d (d; saccular stage of lung development; ˜85% gestation) after maternal antenatal steroids exposure. […] After delivery and surfactant administration, PT lambs were maintained on invasive mechanical ventilation (IMV) for 7d followed by 3d noninvasive respiratory support. For the early-stage study, outcomes were determined for PT lambs over DOL1-10. For the late-stage study, outcomes were determined for former preterm (FPT) lambs (vehicle, AVR-48 treated) that were weaned from respiratory support after 10d and were maintained in the lamb intensive care unit for a further 80d. Outcomes included functional, structural, molecular, and neurobehavioral assessments. Term reference lambs that were never ventilated were used as developmental references for the FPT lambs.
Study timeline. FIGS. 1A and 1B show the timeline for the two-endpoint study using two groups of PT lambs. The first endpoint used PT lambs managed by IMV for 7d, followed by extubation to noninvasive respiratory support (NRS) for up to 3d of life (DOL7-10). At that time, terminal tissues were collected. The second endpoint used the same management protocol, followed by weaning the lambs from respiratory support and having them live in the lamb intensive care unit as former PT (FPT) lambs for 2 months corrected postnatal age (3 months chronological age, DOL 90). The rationale for the 2-month corrected postnatal age for FPT lambs is when sheep are weaned from milk, equivalent to about 12-18 months for humans. Methods for the FPT lamb model have been reported.^14,17
PT lamb model and methods for all outcome measures. Surgical preparation and management of lamb groups. Delivery and clinical management methods for PT lambs (6-8) and FPT lambs (3, 4). Briefly, time-pregnant ewes that had single or twin fetuses at ˜128d (˜85%) gestation (term ˜150d gestation) were used (main FIGS. 1A and 1B). The fetuses were exposed to antenatal steroids (dexamethasone) at ˜48 h and ˜24 h before Cesarean-section (exit-procedure) delivery. […]

[3] = test system: TLR4 and pathway-related cytokines, apoptosis, proliferation and permeability markers in lung tissue homogenates; test: Immunoblot and RT-PCR of lamb lung tissue homogenates; format: in vivo
Method: For molecular analyses, the right caudal lobe was cut into 1 cm^3 pieces (˜1 g each), again using systematic, uniform, random sampling methods. The lung pieces were from peripheral tissue devoid of visceral pleura and central airways, vessels, and connective tissue. The pieces were snap-frozen in liquid nitrogen and stored at −80° C. Homogenates of frozen tissue pieces were used for quantitative real-time RT-PCR and immunoblot analyses. Expression of mRNA was normalized to GAPDH. For immunoblot analysis, cleaved caspase 3 was used (EnzoADI-AAP-113, Enzo Life Sciences, Inc., Farmingdale, NY), PCNA (ab2426, Abcam, Cambridge, MA), and VEGF-R2 (sc-393163, Santa Cruz Biotechnology, Dallas, TX) proteins. Positive controls for immunoblot were the respective native proteins. Protein abundance was normalized, using Memcode (P124585, Fisher Scientific, Pittsburgh, PA).

[4] = test system: IL-1β, IL-6, IL-10 and soluble CD163 in lamb plasma; test: Plasma cytokine and soluble CD163 ELISA in lambs; format: in vivo; conditions: early-stage study, PT lambs vs vehicle
Excerpt: (§1) ELISA: The serum and bronchoalveolar lavage (BAL) fluid samples were used to quantify cytokine and soluble CD163 (sCD163) concentrations. The ELISA experiment analysis used commercially available ELISA kits, which were quantified using a plate reader. The inventors used GraphPad Prism V. 10.4. All sheep (ovine) ELISA kits were used within the expiry dates. Ovine IL-1β(Cat #ELO-IL1β), and ovine IL-6 (Cat #ELO-IL6) ELISA kits were purchased from RayBiotech, Peachtree Corners, GA, USA, sheep IL-10 (Cat #E12817Sh-96) was purchased from Lifeome Biolabs, Oceanside, CA, sheep CD163 (cat #MBS9364870) was purchased from MyBioSource, Inc. San Diego, CA, and Pierce™ BCA Protein Assay Kit (Cat #23227) from Thermo Fischer Scientific, Rockford, IL.

mice [5] = test: Ovalbumin vaccination mouse model with CFA/IFA; format: in vivo; conditions: AVR-48 along with Ovalbumin±CFA/IFA, day 28
Method: Study Design: N=4/per group (Balbc/6J, 6-7 months old). Group-1: (OVA+CFA) 1st dose; (OVA+IFA) 2nd dose; OVA-3rd dose; Group 2: OVA+CFA+AVR-48 1st dose; OVA+IFA+AVR-48 2nd dose; OVA+AVR-48 3rd dose; and Group 3: OVA+IFA+AVR48 1st dose; OVA+IFA+AVR-48 2nd dose; OVA+AVR-48 3rd dose.
Outcome measures: Immune cell quantification (FACS) in the spleen and IgG in serum (ELISA).
In vivo study: In one study, C57Bl/6J mice (n=4/group) were dosed intramuscularly (IM) with either complete Freund's adjuvant (CFA) or incomplete Freund's adjuvant (IFA) along with AVR-48 for a 28-day study using a prime-boost-boost regimen. In the second study, mice were dosed with MPLA and Flu-peptide using only the priming dose regimen (no booster). Splenic immune cells and plasma immunoglobin concentrations were assessed at day 28.

[6] = test system: bronchoalveolar lavage fluid (BALf); test: Total protein (BCA) and TNF-α in lamb bronchoalveolar lavage fluid; format: in vivo
Excerpt: ELISA and BCA assay methods. BCA assay: The lamb BAL fluid samples (10d and 90d terminal studies) were centrifuged to remove the cell pellets, and the supernatant was used to assess the total protein using the Pierce™ BCA Protein Assay Kits, which were read using a BioTek synergy H1 microplate reader (Fisher Scientific, Toronto, ON, Canada).
as §1

[7] = late-stage study, FPT lambs vs FPT vehicle

## CC(=O)NC1C(Oc2ccc([N+](=O)[O-])cc2)OC(CO)C(O)C1O (centres unmarked) [AVR-48]
Mice [1]
  CD3+ T-cells: stimulated
  CD4+ T-cells: stimulated
  CD8+ T-cells: stimulated
  M1 macrophages: increased
  Mint (intermediate) macrophages: increased
  TNF-α: increase
[2]; early-stage study, PT lambs
  survival: ~100%
[2]; late-stage study d10-d90, FPT lambs, 3.0 mg/kg iv every 12 h DOL1-7
  survival: 80%
[2]; late-stage study, FPT AVR-48 lambs vs FPT vehicle lambs
  body weight: significantly increased
[3]; 90-day study, vs FPT vehicle lamb lungs
  P53 in lung: higher
[3]; DOL10, PT lambs vs vehicle
  cleaved caspase-3 protein levels in lung: significantly lower level
  mRNA levels for p53, caspase-3, c-Myc, and TGF-β in lung: No significant difference
[3]; PT lambs vs control, FPT and term lambs
  relative mRNA levels of TLR4 and cytokines in lung: No differences were found
[3]; early-stage study
  protein concentration of TLR4 and pathway-related cytokines in lung tissue: no differences were detected
[3]; early-stage study, 10d, PT group vs vehicle
  VEGF-A protein level in lung: significant decrease
[3]; late-stage study (DOL90), FPT AVR-48 lambs
  TLR4 protein concentration (relative protein level) in lung tissue: 0.007±0.004
[3]; late-stage study (DOL90), FPT lambs vs FPT vehicle
  TLR4 protein concentration in lung tissue vs vehicle: significantly lower
[3]; late-stage study, 90d, FPT AVR-48 vs FPT vehicle
  mRNA expression and protein level for VEGF-A, VEGFR2, and SP-B in lung: no significant difference
[3]; [7]
  IL-6 protein in lung tissue: appeared lower (not significant)
  IL-10 protein concentration in lung tissue: appeared higher (not significant)
  TNF-α protein in lung tissue: appeared lower (not significant)
[4]; 6-10 h
  plasma concentration of IL-1β: significantly lower
[4]; 72-75 h
  plasma concentration of IL-6: significantly lower
[4]; 138-150 h
  plasma concentration of IL-10: significantly higher
Mice [5]
  CD138+/CD38+/CD27+ plasma cells in mouse spleen: Increased
  IgG in serum: Increased
[6]; 10 days, PT lambs vs vehicle
  total protein concentration in BALf: decreased total protein concentration
[6]; 90 days, FPT lambs
  total protein concentration in BALf: no difference was observed
[6]; early and late-stage studies
  TNF-α concentration in BALf: No significant change
